{
  "source": "patent US9988407B2",
  "about": "“Prodrugs of prostate specific membrane antigen (PSMA) inhibitor” (THE JOHNS HOPKINS UNIVERSITY, priority 2014, dated 2018)",
  "key": {"[1]": {"experiment": "Metabolic stability in mouse plasma", "type": "in vitro ADME", "details": "10 μM, 37° C.", "procedure,_shortened": "(§1)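 Prodrugs at 10 μM were incubated in plasma or liver microsomes at 37° C, with triplicate samples taken at 0, 30 and 60 min and quenched in cold acetonitrile. Loss of prodrug was followed by LC/MS/MS in positive electrospray mode. Percent remaining came from the analyte-to-internal-standard peak-area ratio.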"}, "[2]": {"experiment": "Metabolic stability in human plasma", "type": "in vitro ADME", "details": "10 μM, 37° C.", "procedure,_shortened": "as §1"}, "[3]": {"experiment": "Metabolic stability in human liver microsomes", "type": "in vitro ADME", "details": "10 μM, 37° C.", "procedure,_shortened": "as §1"}, "[4]": {"experiment": "Metabolic stability in dog plasma", "type": "in vitro ADME", "details": "10 μM, 37° C.", "protocol": "(§2) For metabolic stability, plasma (mouse, dog, monkey and human) and liver microsomes (mouse, dog, monkey and human) were used. For stability, prodrugs (10 μM) were spiked in each matrix and incubated in an orbital shaker at 37° C. At predetermined times (0, 30 and 60 min), 100 μL aliquots of the mixture in triplicate were removed and the reaction quenched by addition of three times the volume of ice cold acetonitrile spiked with the internal standard (losartan 5 μM). The samples were vortexed for 30 s and centrifuged 12000 g for 10 min. 50 μL supernatant diluted with 50 μL water was transferred to a 250 μL polypropylene vial sealed with a Teflon cap. Prodrug disappearance was monitored over time using a liquid chromatography and tandem mass spectrometry (LC/MS/MS) method as described below.\n(§3) For LC/MS/MS, prodrugs were separated with Thermo Scientific Accela UPLC system coupled to Accela open autosampler on an Agilent C18 (100×2.1 mm id) UPLC column. The autosampler was temperature controlled and operating at 10° C. The mobile phase used for the chromatographic separation was composed of acetonitrile/water containing 0.1% formic acid and was run at a flow rate of 0.5 mL/minute for 4.5 minutes using gradient elution. The column effluent was monitored using TSQ Vantage triple-quadrupole mass spectrometric detector, equipped with an electrospray probe set in the positive ionization mode. Samples were introduced into the ionization source through a heated nebulized probe (350° C.).\n(§4) For quantification of compound remaining, disappearance of prodrugs was measured from ratio of peak areas of analyte to IS. Percentage remaining was calculated in the following manner: […]"}, "[5]": {"experiment": "Metabolic stability in mouse liver microsomes", "type": "in vitro ADME", "details": "10 μM, 37° C.", "procedure,_shortened": "as §1"}, "[6]": {"experiment": "In vivo pharmacokinetics in mice, peroral, bioanalysis method 2 (2-PMPA release)", "details": "rodents and dogs", "protocol": "Blood was obtained via cardiac puncture and tissue dissected at 0 min, 15 min, 30 min, 1 h, 2 h, and 4 h post dose (n=3 per time point). Single time point studies were conducted at 30 min (N=3) following dosing. Plasma was harvested from blood by centrifugation. Mean concentration-time data was used for pharmacokinetic (PK) analysis. Non-compartmental-analysis module in WinNonlin® (version 5.3) was used to assess pharmacokinetic parameters. Peak plasma concentrations (Cmax) and time to Cmax (Tmax) were the observed values. Area under the curve (AUC) was calculated by log-linear (p.o.) trapezoidal rule to the end of sample collection (AUClast) and extrapolated to infinity (AUC0-∞) by dividing the last quantifiable concentration by the terminal disposition rate constant (ke). […] The tissues were stored in −20° C. for 1 h and then homogenized. The calibration curve for the tissues was developed using naïve mouse brains from untreated animals as a matrix. For sciatic nerve, the nerves were weighed and homogenized in 50 μL methanol and the calibration curve was developed using naïve sciatic nerves from untreated animals as a matrix. The samples were vortexed and centrifuged. […] Supernatant was dried under a gentle stream of nitrogen at 45° C. and the residue reconstituted with 75 μL of acetonitrile and vortexed. 25 μL of derivatizing agent N-tert-Butyldimethysilyl-N-methyltrifluoro-acetamide (MTBSTFA) was added to microcentrifuge tubes, vortexed, and heated at ˜60 OC for 40 min. At the end of 40 min, the derivatized samples ˜75 μL were transferred to a 250 μL polypropylene vials and were analyzed via LC/MS/MS. Chromatographic analysis was performed using an Accela™ ultra high-performance system consisting of an analytical pump, and an autosampler coupled with TSQ Vantage mass spectrometer (Thermo Fisher Scientific Inc., Waltham Mass.). […] The total run time for each analyte was 5.0 min. Chromatographic analysis will be performed on Accela UPLC."}, "[7]": {"experiment": "Metabolic stability in monkey liver microsomes", "type": "in vitro ADME", "details": "10 μM, 37° C.", "protocol": "as §2, §3, §4"}, "[8]": {"experiment": "In vitro metabolic stability screen in plasma and liver subcellular fractions (results in words)", "type": "in vitro ADME", "details": "60 min incubation", "procedure,_shortened": "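Prodrugs at 10 μM were incubated at 37° C in plasma and liver microsomes from mouse, dog, monkey and human. Samples were taken at 0, 30 and 60 min and quenched in acetonitrile. Percent remaining was quantified by LC/MS/MS (positive ESI) as analyte/internal standard peak-area ratio.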"}, "[9]": {"experiment": "Chemical stability in HBSS buffer (pH 7.4) / simulated gastric fluid", "type": "physicochemical", "details": "chemical hydrolysis / HBSS buffer", "protocol": "The chemical stability of prodrugs was evaluated using simulated gastric fluid (pH 1.2) and Hanks' Balanced Salt Solution (HBSS) buffer (pH 7.4). Briefly, prodrugs were spiked (10 μM) in respective solutions and incubated at 37° C. for 1 h. At predetermined time points (0, 30 and 60 min), aliquots of 100 μL were removed and diluted with 100 μL of water. Prodrug disappearance was monitored using the developed liquid chromatography and tandem mass spectrometry (LC/MS/MS) method described below.\nas §3, §4"}},
  "note": "Several values for one entry are separate records, joined by “and”; a condition that tells them apart may be missing. Identical values can stand only once.",
  "data": [
    {"smiles": "CC(C)OC(=O)OCOC(=O)C(CCC(=O)O)CP(=O)(OCOC(=O)OC(C)C)OCOC(=O)OC(C)C", "note": "(stereo not drawn) [Compound 10]", "values": [
      {"measurement": "Percentage remaining", "setting": "[1]; 0 min", "value": 100, "unit": "%"},
      {"measurement": "Percentage remaining", "setting": "[1]; 30 min", "value": 1, "unit": "%"},
      {"measurement": "Percentage remaining", "setting": "[1]; 60 min", "value": 0, "unit": "%"},
      {"measurement": "Percentage remaining", "setting": "[2]; 0 min", "value": 100, "unit": "%"},
      {"measurement": "Percentage remaining", "setting": "[2]; 30 min, listed as TRIS-POC", "value": "102% and 64%"},
      {"measurement": "Percentage remaining", "setting": "[2]; 60 min, listed as TRIS-POC", "value": "77% and 48%"},
      {"measurement": "Percentage remaining", "setting": "[3]; 0 min", "value": 100, "unit": "%"},
      {"measurement": "Percentage remaining", "setting": "[3]; 30 min, listed as TRIS-POC", "value": "5% and 3%"},
      {"measurement": "Percentage remaining", "setting": "[3]; 60 min", "value": 0, "unit": "%"},
      {"measurement": "Percentage remaining", "setting": "[4]; 0 min", "value": 100, "unit": "%"},
      {"measurement": "Percentage remaining", "setting": "[4]; 30 min", "value": 67, "unit": "%"},
      {"measurement": "Percentage remaining", "setting": "[4]; 60 min", "value": 28, "unit": "%"},
      {"measurement": "Percentage remaining", "setting": "[5]; 0 min", "value": 100, "unit": "%"},
      {"measurement": "Percentage remaining", "setting": "[5]; 30 min", "value": 1, "unit": "%"},
      {"measurement": "Percentage remaining", "setting": "[5]; 60 min", "value": 0, "unit": "%"},
      {"measurement": "oral bioavailability", "setting": "[6]", "value": "excellent oral bioavailability"},
      {"measurement": "Percentage remaining", "setting": "[7]; 0 min", "value": 100, "unit": "%"},
      {"measurement": "Percentage remaining", "setting": "[7]; 30 min", "value": 0, "unit": "%"},
      {"measurement": "Percentage remaining", "setting": "[7]; 60 min", "value": 0, "unit": "%"},
      {"measurement": "in vitro metabolic stability", "setting": "[8]", "value": "instability in plasma and liver subcellular fractions"},
      {"measurement": "chemical stability", "setting": "[9]", "value": "sufficient chemical stability"}
    ]}
  ]
}
